The subject of test [1] is day 9 metanephric mesenchyme spheroids (human iPSC-derived nephron progenitors). The test is described as follows: Nephron progenitor spheroid differentiation assay (SIX2 / LHX1 immunofluorescence). As to conditions: 48 hr; for LHX1+ early nephron cells in spheroids, agent combined with CHIR: 3 μM CHIR plus 10 μM Y27632 or 30 μM blebbistatin; for LHX1+ early nephron cells in spheroids (marker positive pixel area as % of projection area): single agent in FGF9 basal media, 3 μM CHIR or 10 μM Y27632. In kind it is cell-based. Here is the method: We then decided to mimic the reduction in anisotropic stress that occurs over the tip life-cycle in vivo by adding the ROCK inhibitor Y-27632 or the non-muscle myosin II inhibitor blebbistatin to day 9 metanephric mesenchyme spheroids for 48 hr. These temporal parameters were optimized to capture early transitions of cells through the SIX2+ state and to accumulate differentiation events sparsely, enabling quantification. Spheroids were analyzed by immunofluorescence for SIX2 and the pre-tubular aggregate/renal vesicle (early nephron) marker LHX1 (FIG. 6E). […] These LHX1+ cells clustered and began to express the later medial nephron marker Jag1, indicating appropriate progression of differentiation after perturbation (FIG. 6D).
Nephron progenitor spheroid differentiation assays. Day 9 cap mesenchyme-stage nephron progenitors were lifted with Accutase and re-plated at 50,000 cells per well in 96-well ultra low attachment round-bottom plates (Corning 7007) in Advanced RPMI 1640 Medium, Glutamax, 1× Penn/Strep and 10 ng ml^−1 FGF9 (“basal media”) plus the specified perturbation conditions, which included 3 μM CHIR, 10 μM Y27632 (StemCell Technologies, 72304) from a 10 mM stock in DMSO, and/or 30 μM(S) (S)-(−)-blebbistatin (Tocris, 1852) from a 30 mM stock in DMSO. Cells were then aggregated by plate centrifugation at 300 g for 30 s. After 48 hr in culture, spheroids were collected and transferred to 1.7 mL tubes using a p200 pipette tip widened by cutting the tip to size with a razor blade. Excess media was removed and spheroids were fixed in ice-cold 4% paraformaldehyde in PBS for 15 min. Spheroids were then stained for immunofluorescence microscopy similar to kidneys (see Kidney immunofluorescence imaging.) via primary and secondary antibody incubation for 48 hr each at 4 C and washes in PBSTX totaling 6 hours. Primary antibodies and dilutions included mouse anti-Lhx1 (1:50, 4F2, Developmental Studies Hybridoma Bank, University of Iowa, RRID: AB_531784) and rabbit anti-Six2 (1:600, 11562-1-AP, Proteintech, RRID: AB_2189084). Spheroids were then incubated in 1 μg ml^−1 DAPI in PBS at 4 C for 1 hr before washing once in ice-cold PBS. Spheroids were transferred for imaging using a widened p200 pipette tip to a cover-slip bottom 24-well plate (Greiner 662892). Excess PBS was removed and spheroids were incubated with ˜20 μl of FocusClear (Cedarlane Labs, FC-101) for 20 min at room temperature prior to confocal imaging. Spheroids were imaged using 5 μm z-steps.
Quantification of spheroid cell differentiation. Maximum intensity projections of spheroids were generated and further processed in FIJI. DAPI signal was used to segment spheroids and calculate their areas in number of pixels. SIX2 and LHX1 signal was segmented using 50 pix rolling ball background subtraction and thresholding to remove background signal. The total numbers of SIX2+ and LHX1+ pixels were then divided by the total number of DAPI+ pixels to normalize positive pixels by spheroid area.

Test [2] concerns Rho-associated protein kinase (ROCK). As to conditions: cited from earlier work.
For test [3], the system named is day 9 iPSC-derived metanephric mesenchyme. The test is described as follows: CHIR effect on day 9 iPSC-derived metanephric mesenchyme (substrate release and compaction). In kind it is cell-based, human. As to conditions: day 9 cells, CHIR pulse; ascribed to collective cell contractility rather than motility. The source says: We next turned to a bottom-up approach using human iPSC-derived nephron progenitor organoids to assess the effects of mechanical microenvironment changes on nephron differentiation (FIG. 6B). When differentiated, these roughly mimic the progression in transcriptional states and marker expression profiles of mouse nephron progenitors in vivo, despite some species-specific differences (61-65). To test perturbations to cell collective tension during nephron progenitor commitment, we first differentiated PSCs through late primitive streak and posterior intermediate mesoderm (PIM) lineages to metanephric mesenchyme according to established protocols (66), confirming by qPCR (FIG. 10). We also validated that induced metanephric mesenchyme cells go on to form later nephron structures including ECAD+tubules containing GATA3+ distal nephron cells and Na^+/[…]/2Cl^− cotransporter SLC12A1+ loop of Henle cells after 21 days in culture (FIG. 6C). Day 9 induced metanephric mesenchyme cells were dissociated and plated into low-attachment round-bottom plates where they formed spheroids that we assayed for early nephrogenesis (FIG. 6D). In similar assays, a CHIR pulse is typically applied after re-aggregation of cells to mimic Wnt9b-driven β-catenin signaling during nephron progenitor commitment in vivo (61,62,67,68). […]

In the case of `C[C@@H](N)[C@H]1CC[C@H](C(=O)Nc2ccncc2)CC1` [Y-27632], in test [1], the “LHX1+ early nephron cells in spheroids, agent combined with CHIR” value was “synergistic effect” and the “LHX1+ early nephron cells in spheroids (marker positive pixel area as % of projection area)” value is “did not by itself induce LHX1+ cells”. In test [1] (10 μM Y27632 in FGF9 basal media, without CHIR), the “SIX2+ nephron progenitors in spheroids (marker positive pixel area as % of projection area)” value is given as “increased cell conversion to and/or self-renewal of SIX2+ progenitors”.
Consider `Cc1ccc2c(c1)C(=O)[C@]1(O)CCN(c3ccccc3)C1=N2` [blebbistatin, (S)-(−)-blebbistatin], for which, in test [1], the “LHX1+ early nephron cells in spheroids, agent combined with CHIR” value was “synergistic effect”.
For the compound `Cc1cncc2cccc(S(=O)(=O)N3CCCNC[C@@H]3C)c12` [H1152], the “Nephron formation, high dose” value in test [2] (high dose H1152) is “decreases in nephron formation”. In addition, in test [2] (low dose H1152), the “Nephron formation, low dose” value was “increases in nephron formation”.
Take `Cc1c[nH]c(-c2cnc(NCCNc3ccc(C#N)cn3)nc2-c2ccc(Cl)cc2Cl)n1` [CHIR]: the “LHX1+ early nephron cells in spheroids (marker positive pixel area as % of projection area)” value in test [1] is “increased differentiation to the LHX1+ state”. In addition, in test [3], the “Cell release from substrate and compaction” value was “induced cell release from their substrate and compaction”.

The values are drawn from US20250333708A1, “MANIPULATING NEPHRON DIFFERENTIATION RATE IN INDUCED HUMAN PLURIPOTENT STEM CELL ORGANOIDS AND TISSUES BY ENGINEERING MECHANICS OF THE MICROENVIRONMENT” (THE TRUSTEES OF THE UNIVERSITY OF PENNSYLVANIA, priority 2022, published 2025).
